Results taken from patent US7175855B1, “Ziprasidone suspension” (Pfizer Inc., priority 1999, dated 2007).

Assay: Ability of surfactants to wet ziprasidone HCl monohydrate in water (drug wetting time)
Assay type: physicochemical
Experimental: Different surfactants were tested for their ability to wet ziprasidone HCl monohydrate in water: sodium lauryl sulfate (SLS), MIGLYOL® (registered trademark of Dynamit Nobel Aktiengesellschaft, Germany) Triglyceride (810), and polysorbate-80. In three separate 100 mL volumes of water, each surfactant listed above was added in an amount to make a 1% solution. MIGLYOL® was added in excess due to its low solubility. While stirring at 200 rpm with an overhead stirrer, to each of the three surfactant solutions was added 1.132 g of ziprasidone […] (equivalent to 10 mgA/ml).

CCCCCCCCCCCCOS(=O)(=O)[O-].[Na+] [SLS, sodium lauryl sulfate]
observed rate of wetting (1% surfactant solution in 100 mL water (MIGLYOL in excess), 1.132 g ziprasidone (10 mgA/ml), stirring at 200 rpm): >20 min
foaming during wetting (in words) (wetting agents tested with ziprasidone hydrochloride in water): caused foaming before adequate wetting could be obtained
